The results in this text go back to article PMC6677754, “In silico design and optimization of selective membranolytic anticancer peptides” (Scientific Reports, 2019).

Read-outs that look alike come from different tables or passages of the source. Peptide text beside a SMILES is read from it. Some results are limits rather than exact numbers.

The test system of data set [1] is A549 lung adenocarcinoma cell line. Nature of the data set: Cell viability assay (MTT). The data set is classed as cell-based, human. As for the experimental part: (§1) 10% fetal bovine serum and 1% penicillin-streptomycin (Thermo Fisher Scientific, Waltham, MA, USA). The cultures were kept at 37°C in a 5% CO2 atmosphere incubator (Thermo Fisher Scientific, Waltham, MA, USA) and split every two to three days to new culture flasks. Cells no older than 20 passages were used for experiments.
(§2) For splitting, the cell culture media was aspirated, the cells were washed with 0.01 M phosphate buffered saline (PBS, Gibco, Thermo Fisher Scientific, Waltham, MA, USA) and trypsin-EDTA (trypsin - ethylene diamine tetraacetic acid, Fisher scientific, UK) was added to the cell layer to detach them from the flask surface. After incubation for 2 min at 37°C, cells were resuspended with an equal volume of DMEM media and centrifuged at 310 g for 5 min at 4°C. After removal of the supernatant the cells were resuspended in DMEM cell media and split into new cell culture flasks at a 1/3 to 1/5 ratio.
(§3) Determination of the anticancer peptides half effective concentration (EC50) was performed by a 3-(4,5-dimethylthiazol-2-yl)-2,5-diphenyltetrazolium bromide (MTT) assay, as described elsewhere21. Briefly, […] were seeded in each well of a 96-well plate and left to adhere and […]
(§4) sulfoxide (DMSO, Fisher Scientific, UK) at an intermediate concentration of 1 mM. The peptides were then diluted in a 2-fold dilution series starting at 100 μM with DMEM culture media. Cells were incubated with the peptide solutions for 24 h. After this time, the cell media was removed and the cells were incubated for 1 h with a 0.5 mg mL−1 MTT solution to allow enough time for formazan crystal formation (Sigma Aldrich, Steinheim, Germany). The supernatant was removed and 100 μL of DMSO were added into each well to resuspend the formazan crystals.
(§5) After manually shaking the plates to completely dissolve the crystals, the absorbance was measured at 540 nm in a Tecan Infinity M1000 spectrophotometer. The cell viability was determined based on the quantification of the color intensity in each culture well, considering the absorbance obtained by the control media without peptides as a 100% survival. The resultant sigmoidal curves were analyzed with the drc22 R package using a log-logistic model

For data set [2], the system named is MCF7 breast adenocarcinoma cell line. Nature of the data set: Cell viability assay (MTT). The class given is cell-based, human. As for the experimental part:
as §1, §2, §3, §4, §5

For data set [3], the system named is noncancer HDMEC primary cells (human dermal microvascular endothelial cells). In words: Cell viability assay (MTT). The data set is classed as cell-based. The settings on record: Table S2; noncancer primary cells; MTT, 24 h; mean ± sd; N = 2 independent measurements with six technical replicates each (Figs S6-S8). As for the experimental part: as §1, §2, §3, §4, §5

The test system of a further data set is human erythrocytes. In words: Hemolysis assay. The settings on record: red cells of human, 1 h. The data set is classed as cell-based. Here is the method:
Human erythrocytes were freshly ordered at the Blutspende Zürich. Erythrocytes were washed 3 times with a […] phosphate buffered saline (PBS, Gibco, Thermo Fisher Scientific, Waltham, MA, USA) solution centrifuging at 800 g for 10 min or until the supernatant appeared clear to remove the blood plasma. A 5% v/v erythrocytes : PBS solution was prepared for direct use. For HC50 determination, peptides were dissolved in PBS at an intermediate concentration of 1 mM. A dilution series of the peptide from 200 to 6.25 μM was plated in a round-bottomed 96-well plate in triplicates, with a volume of 50 μL per well. PBS buffer and a solution of 0.1% Triton-X-100 (Fisher Chemical, Loughborough, UK) in PBS were employed as negative and positive controls, respectively. 50 μL of the 5% erythrocyte solution were added in each well and the plates were incubated at 37°C for 1 h. After this time, 100 μL PBS were added to each well and plates were centrifuged at 800 g for 10 min. 100 μL of the supernatant were transferred to a flat-bottomed 96-well plate and the absorbance was measured at 540 nm in a Tecan Infinity M1000 spectrophotometer plate reader. The hemolysis percentage was calculated, considering the absorbance values of the Triton and PBS wells as 100% and 0% hemolysis, respectively.
The resultant sigmoidal curves were analyzed with the drc22 R package using a log-logistic model with 3 fixed parameters to obtain the HC50 values. […]
NCI-60 screening procedure […]
Each peptide was tested in a 5-concentration assay, starting at 10^-4 M and diluting 10-fold to the lowest 10^-8 M concentration. The peptides were incubated for 48 h and the cell concentration was assayed by using the sulforhodamine B assay25 and optical density measurements. The growth inhibition (GI50) value24, measures the growth inhibitory power of the drug agent. The GI50 value is the concentration of the test drug for which the condition in Eq. S1 is met, where T is the optical density of the test well after a 48-h exposure to the peptide, T0 the optical density before applying the peptide drug and C the control optical density of a well where no peptide was applied.

[4] abbreviates: MTT, 10^4 cells per well, 24 h with peptide, 2-fold dilution series from 100 µM in DMEM, absorbance 540 nm, mean ± std, N = 3, read-out: A549 EC50/µM.
The mark [5] stands for this setting: 10^4 cells per well, 24 h with peptide, 2-fold dilution series from 100 µM in DMEM, absorbance 540 nm, mean ± std, N = 3.
The mark [6] stands for this setting: Table S2, MTT, 24 h, mean ± sd, N = 2 independent measurements with six technical replicates each (Figs S6-S8), read-out: A549 EC50 /µM.
Setting [7] is: Table S2, 24 h, mean ± sd, N = 2 independent measurements with six technical replicates each (Figs S6-S8).

Regarding `CC[C@H](C)[C@H](NC(=O)[C@H](CCCNC(=N)N)NC(=O)[C@H](CCCCN)NC(=O)[C@H](CC(C)C)NC(=O)[C@H](Cc1c[nH]c2ccccc12)NC(=O)[C@H](C)N)C(=O)N[C@@H](CCCCN)C(=O)N[C@@H](CCCCN)C(=O)N[C@@H](Cc1ccccc1)C(=O)N[C@@H](CC(C)C)C(=O)N[C@@H](CCCCN)C(=O)N[C@@H](C)C(=O)N[C@@H](CC(C)C)C(=O)N[C@@H](Cc1ccccc1)C(=O)N[C@@H](Cc1c[nH]c2ccccc12)C(=O)N[C@H](C(=O)N[C@@H](Cc1c[nH]c2ccccc12)C(=O)N[C@H](C(=O)N[C@@H](Cc1c[nH]c2ccccc12)C(N)=O)C(C)C)C(C)C` [Gradient2] (H-AWLKRIKKFLKALFWVWVW-NH2), the EC50 in data set [1] (Fig. S11, experimental replicate 1 (top panel), fit value (error in brackets), N = 6 technical replicates, MTT 24 h, read-out: EC50) was 107 µM; in data set [1] (Fig. S11, experimental replicate 2 (middle panel), fit value (error in brackets), N = 6 technical replicates, MTT 24 h, read-out: EC50), 152 µM; in data set [1] (Fig. S11, experimental replicate 3 (bottom panel), fit value (error in brackets), N = 6 technical replicates, MTT 24 h, read-out: EC50), 487 µM; in data set [1] (setting [4]), over 50 µM; in data set [2] (setting [5]), 19 ± 1.8 µM.
Turning to `CC[C@H](C)[C@H](NC(=O)[C@@H](NC(=O)[C@H](CC(C)C)NC(=O)[C@@H](NC(=O)[C@H](CC(N)=O)NC(=O)[C@H](CCC(=O)O)NC(=O)[C@H](Cc1ccccc1)NC(=O)[C@H](CC(N)=O)NC(=O)[C@H](CC(=O)O)NC(=O)[C@@H](NC(=O)[C@@H](NC(=O)[C@@H](N)CCCCN)C(C)C)C(C)C)[C@@H](C)CC)[C@@H](C)CC)C(N)=O` [Gradient3] (H-KVVDNFENILII-NH2; N-terminus assumed), the EC50 in data set [1] (setting [4]) and in data set [2] (setting [5]) was over 50 µM in each case.
On to `CC[C@H](C)[C@H](NC(=O)[C@H](CC(N)=O)NC(=O)[C@@H]1CCCN1C(=O)[C@@H](NC(=O)[C@H](C)NC(=O)[C@H](C)NC(=O)[C@H](CC(N)=O)NC(=O)[C@@H](NC(=O)[C@@H](N)CCCNC(=N)N)C(C)C)[C@@H](C)CC)C(=O)N[C@H](C(=O)N[C@H](C(N)=O)C(C)C)[C@@H](C)CC` [Gradient4] (H-RVNAAIPNIIV-NH2; N-terminus assumed), for which the EC50 in data set [1] (setting [4]) and in data set [2] (setting [5]) was over 50 µM throughout.
In the case of `CC[C@H](C)[C@H](NC(=O)[C@H](CC(C)C)NC(=O)[C@H](CCCCN)NC(=O)[C@H](CC(C)C)NC(=O)[C@@H](NC(=O)[C@H](C)NC(=O)CNC(=O)[C@H](C)NC(=O)[C@H](CC(C)C)NC(=O)[C@H](CCCCN)NC(=O)CNC(=O)[C@H](CC(C)C)NC(=O)[C@H](CCCCN)NC(=O)[C@@H](NC(=O)[C@H](Cc1c[nH]c2ccccc12)NC(=O)[C@H](CC(C)C)NC(=O)[C@@H](N)Cc1ccccc1)[C@@H](C)CC)C(C)C)C(=O)N[C@@H](CC(C)C)C(=O)NCC(=O)N[C@@H](CC(C)C)C(=O)N[C@@H](CCCCN)C(=O)N[C@@H](CCCCN)C(=O)N[C@H](C(=O)N[C@H](C(N)=O)C(C)C)C(C)C` [Helical1] (H-FLWIKLGKLAGAVLKLILGLKKVV-NH2), the figures for the EC50 in data set [1] (setting [4]) and in data set [2] (setting [5]) were 8.3 ± 2 µM and 4.4 ± 1.3 µM, respectively.
Taken in the same sequence, the figures for `CC[C@H](C)[C@H](NC(=O)[C@H](C)NC(=O)[C@H](Cc1c[nH]c2ccccc12)NC(=O)[C@H](CC(C)C)NC(=O)CN)C(=O)N[C@@H](C)C(=O)N[C@H](C(=O)N[C@@H](CCCCN)C(=O)N[C@@H](C)C(=O)NCC(=O)N[C@@H](CCCCN)C(=O)N[C@H](C(=O)N[C@H](C(=O)N[C@@H](CC(C)C)C(=O)N[C@@H](CCCCN)C(=O)N[C@@H](CC(C)C)C(=O)N[C@H](C(=O)N[C@H](C(=O)N[C@@H](Cc1ccccc1)C(=O)N[C@H](C(=O)N[C@@H](Cc1c[nH]c2ccccc12)C(=O)N[C@H](C(=O)N[C@@H](CCCNC(=N)N)C(=O)N[C@H](C(N)=O)C(C)C)[C@@H](C)CC)[C@@H](C)CC)C(C)C)[C@@H](C)CC)[C@@H](C)CC)C(C)C)C(C)C` [Helical2] (H-GLWAIAVKAGKVILKLIVFIWIRV-NH2; N-terminus assumed) were over 50 µM and over 50 µM.
`CC[C@H](C)[C@H](NC(=O)[C@H](CC(=O)O)NC(=O)[C@H](CC(C)C)NC(=O)[C@H](CC(C)C)NC(=O)CN)C(=O)N[C@@H](C)C(=O)NCC(=O)NCC(=O)N[C@@H](CC(N)=O)C(=O)N[C@@H](C)C(=O)N[C@@H](CCC(=O)O)C(=O)N[C@H](C(=O)N[C@@H](CC(C)C)C(=O)N[C@@H](C)C(=O)NCC(=O)N[C@@H](Cc1c[nH]cn1)C(=O)N[C@@H](C)C(=O)N[C@H](C(N)=O)C(C)C)[C@@H](C)O` [Helical3] (H-GLLDIAGGNAETLAGHAV-NH2; N-terminus assumed): the EC50 in data set [1] (setting [4]) and in data set [2] (setting [5]) was over 50 µM in each case.
Turning to `CC[C@H](C)[C@H](NC(=O)[C@@H](NC(=O)[C@H](CC(=O)O)NC(=O)[C@H](Cc1ccccc1)NC(=O)[C@H](CC(C)C)NC(=O)CN)C(C)C)C(=O)NCC(=O)N[C@@H](CO)C(=O)N[C@@H](CCC(N)=O)C(=O)N[C@@H](C)C(=O)NCC(=O)NCC(=O)N[C@@H](C)C(=O)N[C@@H](C)C(=O)N1CCC[C@H]1C(=O)N[C@@H](Cc1c[nH]cn1)C(=O)N[C@@H](Cc1ccccc1)C(=O)N[C@@H](CC(C)C)C(=O)NCC(N)=O` [Helical4] (H-GLFDVIGSQAGGAAPHFLG-NH2; N-terminus assumed), the EC50 in data set [1] (setting [4]) and in data set [2] (setting [5]) was over 50 µM throughout.
On to `CC[C@H](C)[C@H](NC(=O)[C@@H]1CCCN1C(=O)[C@H](Cc1c[nH]cn1)NC(=O)[C@H](Cc1ccccc1)NC(=O)[C@H](CCCCN)NC(=O)[C@H](CCCCN)NC(=O)[C@H](Cc1ccccc1)NC(=O)[C@@H](NC(=O)[C@@H](N)CCCNC(=N)N)C(C)C)C(=O)N[C@@H](Cc1ccc(O)cc1)C(=O)N[C@@H](Cc1c[nH]cn1)C(=O)N[C@@H](CCCNC(=N)N)C(=O)N[C@H](C(=O)N[C@@H](Cc1c[nH]c2ccccc12)C(=O)N[C@@H](CCCNC(=N)N)C(=O)N[C@@H](CC(C)C)C(=O)N[C@@H](Cc1c[nH]c2ccccc12)C(=O)NCC(=O)N[C@@H](Cc1c[nH]cn1)C(=O)N[C@@H](CC(C)C)C(N)=O)C(C)C` [Off1] (H-RVFKKFHPIYHRVWRLWGHL-NH2), for which the EC50 came to 56 ± 7 µM in data set [3], 49 ± 2 µM in data set [1] (setting [6]) and 27.4 ± 0.5 µM in data set [2] (setting [7]). The “Eryhtr. HC50 /µM” value in the data set with human erythrocytes is given as over 200 µM.
Taken in the same sequence, the figures for `CC(C)C[C@H](NC(=O)[C@H](CCCCN)NC(=O)CNC(=O)[C@H](Cc1ccccc1)NC(=O)[C@H](CC(C)C)NC(=O)[C@H](CCC(=O)O)NC(=O)[C@H](Cc1c[nH]c2ccccc12)NC(=O)[C@@H]1CCCN1C(=O)[C@H](CCCNC(=N)N)NC(=O)[C@H](CCCNC(=N)N)NC(=O)[C@H](Cc1ccc(O)cc1)NC(=O)[C@H](Cc1ccccc1)NC(=O)[C@@H]1CCCN1C(=O)[C@H](CCCNC(=N)N)NC(=O)[C@H](Cc1ccccc1)NC(=O)[C@H](CCCCN)NC(=O)[C@H](CCCCN)NC(=O)[C@H](Cc1ccccc1)NC(=O)[C@@H](NC(=O)[C@@H](N)CCC(N)=O)C(C)C)C(N)=O` [Off2.1] (H-QVFKKFRPFYRRPWELFGKL-NH2) were 173 ± 1 µM, over 100 µM, 91 ± 2 µM and over 200 µM.
